Experiments:
[1] = tested on: patients with hemiplegia attributed to cerebrovascular disease (stroke) who developed RSD (shoulder-hand syndrome); experiment: Test of treatment of post-stroke RSD; assay type: in vivo, human; details: therapeutic administration group
Procedure: EL was administered after the onset of RSD (shoulder-hand syndrome) in the same use and dose as in Example 1 to 11 patients with hemiplegia attributed to cerebrovascular disease (stroke) at Brunnstrom stage III or lower in either the upper limb or a finger on admission, who developed RSD (shoulder-hand syndrome). These patients were classified into a therapeutic administration group. On the other hand, the EL administration group of Example 1 was compared as a control (preventive administration group) with the therapeutic administration group.

[2] = tested on: patients with hemiplegia attributed to cerebrovascular disease (stroke), post-stroke RSD (shoulder-hand syndrome); experiment: Test of prevention of onset of post-stroke RSD; assay type: in vivo, human
From the text: Test subjects were 33 patients with hemiplegia attributed to cerebrovascular disease (stroke) at Brunnstrom stage III or lower in either the upper limb or a finger on admission. Patients already developing RSD (shoulder-hand syndrome) on admission and patients with pain in the shoulder joint or swollen paralyzed limbs were excluded from the test. […] On the other hand, 21 test subjects were classified into a rehabilitation alone group (control group) and compared with the EL administration group. Physical therapy and therapeutic exercise, occupational therapy, and the management of the paralyzed limbs were performed thoroughly in all the cases. […] EL administration was initiated 11 to 59 days after an attack of stroke (25.8 days on average) and continued until 5 months after the attack of stroke. The same observation period was applied to the control group. The test subjects were diagnosed as developing RSD (shoulder-hand syndrome) if they had diffuse pain not localized to the shoulder joint, edema involving skin color changes, skin temperature abnormalities, and range of motion limitations, and the practice of their rehabilitation was restricted. These criteria agreed to Veldman's diagnostic criteria or diagnostic criteria, for CRPS-type 1 provided by the International Association for the Study of Pain.
Activities of daily living (ADL) were evaluated on the basis of the Barthel Index (BI) and the range of motion (ROM) of shoulder joint. The movable range of shoulder joint (also referred to as “shoulder ROM”) was regarded as restricted (Shoulder-ROM-restrictions were present.) if either abduction or flexion was restricted in measurement. The test subjects were also examined for sensory impairment, aphasia, and unilateral spatial neglect on admission.
Statistical analysis was conducted with unpaired t-test, Fisher's exact test, or Wilcoxon test, and 5% or lower significance level was regarded as being significant.

[3] = tested on: RSD triggered and developed by a trauma or surgical invasion; details: clinical; cited from earlier work
[4] = EL preventive administration group, 12 cases, 20 units i.m. once a week until 5 months after attack

Row | Molecule | Barthel index at completion of EL administration compared with preventive administration group [1] | Diffuse pain, shoulder joint pain and progression of range of motion restrictions [1] | Suppression of the symptoms of RSD [1] | Incidence of RSD converted to all patients with hemiplegia attributed to stroke in the facility ([2]; EL administration group) | Incidence of RSD ([2]; EL administration initiated within 48 days after stroke) | Incidence of RSD (cases developing RSD) ([2]; EL preventive administration group, 1 of 12 cases) | Number of test subjects developing post-stroke RSD (Developed) [2, 4] | Number of test subjects not developing post-stroke RSD (Not developed) [2, 4] | No RSD, the number of persons ([2]; preventive administration group, at completion of administration) | Incidence of RSD until discharge from hospital versus unadministered patient group ([2]; repetitive administration to stroke hemiplegia patients without RSD on admission) | Effect on initial onset of RSD [3]
1 | 1-butyric acid-7-(L-2-aminobutyric acid)-26-L-aspartic acid-27-L-valine-29-L-alanine-calcitonin [EL] | significantly low | slightly suppressed | could not be suppressed completely in any case | approximately 1.3% | 0% | 8.3% | 1 | 11 | 11 | suppressed significantly and remarkably | –
2 | O=C1O[C@H]([C@@H](O)CO)C(O)=C1O [vitamin C] | – | – | – | – | – | – | – | – | – | – | preventive effect
